Legend:
Sprague-Dawley rat pups = assay: Alveolus formation (septation) in newborn rat pups, daily intraperitoneal injection, lung histology and morphometry; format: in vivo
Excerpt: This retinoid, termed AGN 193174, has a structure defined by the formula [drawing 1]
Following sacrifice, rat lungs were fixed and histological sections prepared essentially as described in Massaro et al., Am. J. Physiol. 270: L305 (1996), incorporated by reference herein. The histological sections were viewed and photographs taken under light microscopy.
The differences in alveolar dimensions between =treated and untreated rat pups were so pronounced, they were quantitated by measuring the distance between alveolar walls (Lm) and the surface-to-volume ratio (S/V) of the gas-exchange structures (septa). The Lm in cottonseed oil-treated rats was 80 μm±2.8 μm (N=4) compared to 110 μm±7.3 μm (N=3) in RARβ agonist-treated rats (N=3; P=0.03 by Mann Whitney nonparametric analysis). The S/V was 504 μm^−1±18 μm^−1(N=4) in cottonseed oil-treated rats compared to 365 μm^−1±23 μm^−1(N=3) in RARβ agonist-treated rats (P=0.03).

RARγ = target: T1, RARγ (Homo sapiens, UniProt P13631); assay: RAR isotype activity stated for the retinoid ligand (RARγ)
T1 sequence (P13631 1-454): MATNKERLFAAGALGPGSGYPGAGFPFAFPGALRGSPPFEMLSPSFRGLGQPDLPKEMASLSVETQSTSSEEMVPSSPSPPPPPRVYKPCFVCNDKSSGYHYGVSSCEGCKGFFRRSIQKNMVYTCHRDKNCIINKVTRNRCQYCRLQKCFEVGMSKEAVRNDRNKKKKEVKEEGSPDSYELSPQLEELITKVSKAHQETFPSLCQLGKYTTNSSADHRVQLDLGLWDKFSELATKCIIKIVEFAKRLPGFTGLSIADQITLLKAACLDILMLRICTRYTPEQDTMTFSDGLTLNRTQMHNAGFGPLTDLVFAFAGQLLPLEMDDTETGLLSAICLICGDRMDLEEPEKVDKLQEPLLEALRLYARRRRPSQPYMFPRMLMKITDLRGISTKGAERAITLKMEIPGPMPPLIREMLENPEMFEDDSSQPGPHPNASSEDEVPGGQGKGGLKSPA

RAR receptors = assay: Receptor class specificity, RAR versus RXR
RARβ = assay: RAR isotype activity stated for the retinoid ligand (RARβ)
all RAR isotypes = conditions: cited from earlier work
newborn rats = conditions: cited from earlier work
[1] = system: rats treated with elastase; conditions: cited from earlier work

| Compound | alveolar size and degree of septation in histological sections versus cottonseed oil alone (Sprague-Dawley rat pups; age 14 days, treated daily from age 3 through 13 days, FIGS. 1A and 1B) | Lung volume versus cottonseed oil-treated rats (Sprague-Dawley rat pups; rat pups, 500 micrograms per kg i.p. daily from age 3 to 13 days) | activity at RARγ (RARγ) | specificity RAR versus RXR receptors (RAR receptors) | activity at RARβ (agonist) (RARβ) | activity at RARβ (antagonist (so in the source)) (RARβ) | agonist activity at RAR isotypes (all RAR isotypes) | effect on number of alveoli (newborn rats) | effect on elastase-induced destruction of alveolar walls [1] |
| --- | --- | --- | --- | --- | --- | --- | --- | --- | --- |
| CC1(C)CC=C(c2cccs2)c2cc(C#Cc3ccc(C(=O)O)cc3)ccc21 [AGN 193174] | alveoli were larger, and the degree of sepatation less | the same in both rat groups | antagonist activity | specific to RAR receptors and not to RXR receptors | RARβ agonist activity | antagonist activity |  |  |  |
| CC1=C(/C=C/C(C)=C/C=C/C(C)=C/C(=O)O)C(C)(C)CCC1 [ATRA, all-trans-retinoic acid] |  |  |  |  |  |  | an agonist of all RAR isotypes | induced the formation of an increased number of alveoli in rats without enlarging the lung | appeared to reverse this destruction |
